Experiments:
SK-Mel-5 cells [1] = experiment: Growth of cultured melanoma cells, hemocytometer counting; format: cell-based, human
Description: FIGS. 1A-1E. […] After 72 h treatment, cells were photographed. […] 2×10^6 SK-Mel-5 melanoma cells were subcutaneously inoculated into nude mice (n=5 mice per group). […] Tumor size was measured using an electronic digital caliper at intervals of 4 days. Tumor volume was calculated and statistically analyzed. Data shown are representative of two independent experiments. […] BMS-345541 levels in serum (μM, left axis) and tumor tissues (nmoles per gram tumor protein, right axes) were determined at the indicated time points.
(§1) A super-repressor form of human IκBα (S32, 36A) resistant to degradation and mutant IKKβ (K44M) was kindly provided by Javier Piedrafita (Sidney Kimmel Cancer Center, University of California-San Diego School of Medicine). Antibodies to IKKα (H-744), IKKβ (H-470), Bcl-2, Bax and AIF were purchased from Santa Cruz Biotechnology, Inc. (Santa Cruz, Calif.). Dihydroethidine, 3,3′dihexyloxacarbocyanine iodide and pan-caspase inhibitor (Z-VAD-FMK) were purchased from Molecular Probes (Eugene, Oreg.). N-acetyl-L-cysteine (NAC) and Tiron were from Sigma-Aldrich (St. Louis, Mo.). Normal human epidermal melanocytes (NHEM) were provided by the Skin Disease Research Center in Vanderbilt University School of Medicine. NHEM were cultured in 154 medium with 1× human melanocyte growth supplement (Cascade Biologicals, Inc.). The melanoma cell lines, Sk Mel5, A375 and Hs294T, originally established from human metastatic melanoma, were purchased from American Type Culture Collection and cultured in DMEM: Ham's F-12 medium containing 10% FBS, 2 mM of L-glutamine, 100 μM of MEM Non-Essential Amino Acids (Life Technologies, Inc.), and 1 mM of sodium pyruvate (Sigma Chemical Co.).
Aberrant activation of NF-κB has been associated with carcinogenesis, and constitutively high IKK activity has been detected in many tumor types, including human melanoma (Yang & Richmond, 2001; Liptay et al., 2003; Mathas et al., 2003). IKK is a major regulator of the NF-κB pathway and therefore represents an attractive therapeutic target in advanced cancers. […] After three days of culture, the cell numbers were determined by hemocytometer counting (Table 1).

A375 cells = experiment: as above; format: cell-based, human
Text: as §1, with “[…])” for “(K44M)”, “Piedrafita (Sidney Kimmel” left out, “Dihydroethidine, 3,3′dihexyloxacarbocyanine iodide and pan-caspase inhibitor (Z-VAD-FMK) were purchased from Molecular Probes (Eugene, Oreg.).” left out, “Co.). Aberrant activation of NF-κB has been associated with carcinogenesis, and constitutively high IKK activity has been detected in many tumor types, including human melanoma (Yang & Richmond, 2001; […] et al., 2003; […] et al., 2003). IKK is a major regulator of the NF-κB pathway and therefore represents an attractive therapeutic target in advanced cancers. […] After three days of culture, the cell numbers were determined by hemocytometer counting (Table 1).” for “Co.).”

Hs 294T cells = experiment: as above; format: cell-based, human
Text: as §1, with “[…])” for “(K44M)”, “Piedrafita (Sidney Kimmel” left out, “Dihydroethidine, 3,3′dihexyloxacarbocyanine iodide and pan-caspase inhibitor (Z-VAD-FMK) were purchased from Molecular Probes (Eugene, Oreg.).” left out, “Co.). Aberrant activation of NF-κB has been associated with carcinogenesis, and constitutively high IKK activity has been detected in many tumor types, including human melanoma (Yang & Richmond, 2001; […] et al., 2003; […] et al., 2003). IKK is a major regulator of the NF-κB pathway and therefore represents an attractive therapeutic target in advanced cancers. […] After three days of culture, the cell numbers were determined by hemocytometer counting (Table 1).” for “Co.).”

A375 tumors = experiment: Melanoma tumor growth in nude mice; format: in vivo; conditions: 75 mg/kg orally once daily, 21 days, vs vehicle
IKK [2] = target: T1, IKK (Homo sapiens, UniProt O14920+O15111); experiment: IKK immunoprecipitation and in vitro kinase assay from treated SK-Mel-5 cells; format: cell-based; conditions: overnight (14 h) treatment, autoradiography (FIG. 2B)
T1 construct: Equal aliquots of cytoplasmic IKK proteins were immunoprecipitated with anti-IKKα/β antibodies; endogenous in cells; host or cells: SK-Mel-5 human melanoma cells, cytoplasmic extract, immunoprecipitated on Protein A/G agarose beads
Description: (§2) FIGS. 2A-2D. […] SK-Mel-5 cells were plated in 6-well plates (1.5×10^5 cells per well) and then cotransfected with 1 μg of HIV long terminal repeat NF-κB-luciferase vector and β-galactosidase vector DNA using Lipofectamine Plus reagent. Twenty-four hours after transfection, cells in duplicate plates were treated with 0, 0.1, 1 and 10 μM of BMS-345541in DMSO and incubated for an additional 36 h. Cell extract was prepared and luciferase activity was detected. Luciferase activity was normalized to β-galactosidase activity. […] ATP. The [γ-^32P]-labeled IκBα protein was visualized by autoradiography. […] The supernatants from B were cleared by centrifugation, or (FIG. 2D) sera were collected from mice, and subjected to ELISA assay for CXCL1 according to the manufacture's protocol. Data shown are from a representative data set from two experiments performed in duplicate (total n=4 for each point). For ELISA; the mean value is representative of serum samples from five mice.

IKK [3] = target: T1, IKK; experiment: Cell-free IKK kinase assay with washing (reversibility); format: biochemical; conditions: immunopurified IKK, 10 μM, 20 min, washed three times
Description: To analyze the IKK activity, cytoplasmic extracts were prepared from cells cultured for 24 h in serum-free medium. Cells were mechanically released from tissue culture plates by scraping in cold PBS according to standard protocols. Cells were collected by centrifugation (800×g), and then resuspended in lysis buffer [10 mM HEPES (pH 7.9), 10 mM KCl, 0.1 mM EDTA, 0.1 mM EGTA, 0.1% NP40, 1 mM DTT, and 0.5 mM phenylmethylsulfonyl fluoride] with Complete Protein Inhibitors (Roche). 400 μg aliquots of cytoplasmic extracts were incubated with 1 μg each of IKKα and IKKβ polyclonal antibodies (Santa Cruz Biotechnology) and 60 μg aliquots of Protein A/G agarose-conjugated beads for 4 h at 4° C. […] The reaction mixtures were resolved by SDS-PAGE, transferred to nitrocellulose membrane, and phosphorylated IκB was detected by autoradiography.
Equal aliquots of cytoplasmic IKK proteins were immunoprecipitated with anti-IKKα/β antibodies and IKK activity was determined in an in vitro kinase assay using recombinant IκBα protein as a substrate for IκB kinase. The IKK activity was determined by autoradiography.

CXCL1 = CXCL1 ELISA of serum of mice bearing melanoma tumors; format: in vivo
Description: as §2
To quantify the CXCL1 expression levels in vivo and in vitro, serum was collected at the end of the experiments from mice bearing SK-Mel-5 melanoma tumors or from the cleared supernatants of melanoma cell culture medium. Briefly, 1.5×10^5 of SK-Mel-5 cells/well were seeded in six-well plates in duplicate in DMEM/F12 medium containing 10% FBS.

SK-Mel-5 cells [4] = experiment: Electron microscopy of cultured melanoma cells; format: cell-based, human; conditions: 10 μM, 24 h

T1 sequence (O14920 whole entry): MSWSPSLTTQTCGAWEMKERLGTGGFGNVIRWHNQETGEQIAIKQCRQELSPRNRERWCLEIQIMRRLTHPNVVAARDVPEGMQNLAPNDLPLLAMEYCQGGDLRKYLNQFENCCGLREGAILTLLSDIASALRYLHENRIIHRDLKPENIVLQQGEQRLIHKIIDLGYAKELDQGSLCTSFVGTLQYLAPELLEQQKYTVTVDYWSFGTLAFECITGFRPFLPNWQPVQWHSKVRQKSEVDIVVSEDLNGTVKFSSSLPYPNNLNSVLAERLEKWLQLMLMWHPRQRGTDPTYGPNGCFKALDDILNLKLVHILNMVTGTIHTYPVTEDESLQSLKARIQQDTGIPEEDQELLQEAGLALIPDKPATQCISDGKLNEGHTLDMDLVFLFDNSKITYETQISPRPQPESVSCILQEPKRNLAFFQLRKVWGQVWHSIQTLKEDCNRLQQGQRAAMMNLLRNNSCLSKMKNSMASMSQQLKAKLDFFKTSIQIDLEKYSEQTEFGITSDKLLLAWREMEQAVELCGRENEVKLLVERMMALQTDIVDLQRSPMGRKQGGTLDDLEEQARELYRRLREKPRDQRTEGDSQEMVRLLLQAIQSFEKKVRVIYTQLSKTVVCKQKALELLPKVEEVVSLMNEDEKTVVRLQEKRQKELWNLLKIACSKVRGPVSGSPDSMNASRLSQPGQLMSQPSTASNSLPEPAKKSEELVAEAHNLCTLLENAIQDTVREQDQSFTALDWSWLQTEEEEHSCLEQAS
T1 sequence (O15111 whole entry): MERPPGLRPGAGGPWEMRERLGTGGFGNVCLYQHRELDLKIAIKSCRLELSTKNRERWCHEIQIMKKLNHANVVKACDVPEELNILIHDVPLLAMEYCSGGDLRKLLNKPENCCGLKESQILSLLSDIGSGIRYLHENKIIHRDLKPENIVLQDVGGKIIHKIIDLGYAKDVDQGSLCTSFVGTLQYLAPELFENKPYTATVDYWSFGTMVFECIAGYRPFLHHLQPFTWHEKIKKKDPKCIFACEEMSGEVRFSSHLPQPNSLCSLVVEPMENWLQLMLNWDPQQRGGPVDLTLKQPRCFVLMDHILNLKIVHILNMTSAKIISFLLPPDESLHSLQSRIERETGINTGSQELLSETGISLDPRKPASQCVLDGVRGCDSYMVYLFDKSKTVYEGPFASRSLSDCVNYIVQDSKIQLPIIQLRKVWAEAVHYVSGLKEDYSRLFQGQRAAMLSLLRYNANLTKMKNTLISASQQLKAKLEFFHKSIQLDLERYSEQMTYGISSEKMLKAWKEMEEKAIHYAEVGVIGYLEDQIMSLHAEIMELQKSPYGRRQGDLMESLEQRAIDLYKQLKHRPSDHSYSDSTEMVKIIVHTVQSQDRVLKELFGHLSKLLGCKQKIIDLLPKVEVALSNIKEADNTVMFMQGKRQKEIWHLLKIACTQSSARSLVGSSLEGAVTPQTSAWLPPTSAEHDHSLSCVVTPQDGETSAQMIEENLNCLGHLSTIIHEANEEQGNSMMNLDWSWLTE
T1 sequence (Q9Y6K9 whole entry partner): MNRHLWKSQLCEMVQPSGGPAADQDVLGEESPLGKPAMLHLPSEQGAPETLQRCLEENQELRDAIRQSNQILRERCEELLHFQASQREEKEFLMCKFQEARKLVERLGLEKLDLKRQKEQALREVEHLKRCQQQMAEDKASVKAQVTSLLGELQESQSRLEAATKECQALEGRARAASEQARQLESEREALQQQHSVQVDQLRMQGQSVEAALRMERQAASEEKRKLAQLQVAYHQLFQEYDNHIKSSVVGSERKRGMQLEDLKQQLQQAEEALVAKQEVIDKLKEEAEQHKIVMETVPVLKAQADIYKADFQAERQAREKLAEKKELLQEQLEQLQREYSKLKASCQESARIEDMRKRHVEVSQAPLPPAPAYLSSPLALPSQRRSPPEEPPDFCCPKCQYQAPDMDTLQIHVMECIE

Compound: Cc1ccc2nc(NCCN)c3ncc(C)n3c2c1.Cl [BMS-345541, 4(2′-aminoethyl)amino-1,8-dimethylimidazo(1,2-a)quinoxaline]
- cell morphology (SK-Mel-5 cells [1]; 10 μM or 100 μM, 14 h (FIG. 1A)): appeared morphologically apoptotic
- cell number after three days of culture (SK-Mel-5 cells [1]; Sk-Mel-5, 0.1 μM): 3.7 ± 0.55 10^5
- cell number after three days of culture (SK-Mel-5 cells [1]; Sk-Mel-5, 1.0 μM): 2.7 ± 0.31 10^5
- cell number after three days of culture (SK-Mel-5 cells [1]; Sk-Mel-5, 10 μM): 0.028 ± 0.02 10^5
- cell number after three days of culture (SK-Mel-5 cells [1]; Sk-Mel-5, 100 μM): 0 10^5
- cell number after three days of culture (A375 cells; A375, 0.1 μM): 3.2 ± 0.38 10^5
- cell number after three days of culture (A375 cells; A375, 1.0 μM): 1.6 ± 0.38 10^5
- cell number after three days of culture (A375 cells; A375, 10 μM): 0.020 ± 0.01 10^5
- cell number after three days of culture (A375 cells; A375, 100 μM): 0 10^5
- cell number after three days of culture (Hs 294T cells; 0.1 μM): 1.9 ± 0.15 10^5
- cell number after three days of culture (Hs 294T cells; 1.0 μM): 2.2 ± 0.42 10^5
- cell number after three days of culture (Hs 294T cells; 10 μM): 0.013 ± 0.01 10^5
- cell number after three days of culture (Hs 294T cells; 100 μM): 0 10^5
- inhibition of tumor growth (A375 tumors): 69±11%
- IKK activity in SK-Mel-5 melanoma cells (IKK [2]): reduced by BMS-345541 in a concentration-dependent fashion
- reversibility of IKK inhibition by washing (IKK [3]): reversed after the washing steps
- CXCL1 expression in mouse sera (CXCL1): suppressed in a concentration-dependent manner
- morphology under electron microscopy (SK-Mel-5 cells [4]): typical feature of apoptosis

Reference: patent publication US20060025419A1, “Imidazoquinoxaline compound for the treatment of melanoma” (priority 2004, published 2006)
